In US20260217701A1, “SELECTIVE BET INHIBITORS AND USES THEREOF” (Tay Therapeutics Limited, priority 2022, published 2026):
Several values for one entry are separate records, joined by “and”; a condition that tells them apart may be missing. Equal values may be shown once. Read-outs that look alike come from different tables or passages of the source.

Assays:
[1] = test system: IL-22; test: IL-22 release from activated human PBMCs (ELISA); type: cell-based; conditions: for IC50: Homo sapiens, PBMC
Method: Human PBMCs used to analyze inhibition of CXCL10 were collected from 8 donors, PBMCs used to analyze inhibition of IL-17A were collected from 7 donors, and PBMCs used to analyze inhibition of IL-22 were collected from 6 donors. Compounds were serially diluted in 10 mM DMSO and further diluted in assay media to 100× the required final concentration, of which 2 μL was added to the specified well. […] The cell culture supernatant was collected and levels of IL-17A and IL-22 in the supernatant were assessed by ELISA (Invitrogen).

[2] = target: T1, BRD4 BD1 (Homo sapiens, UniProt O60885); test: NanoBRET bromodomain assay, NanoLuc-BRD4-BD1 in HEK293 cells; type: binding
T1 construct: HEK293 cells were transfected using NanoLuc-BRD4-BD1 or NanoLuc-BRD4-BD2 fusion vectors

[3] = test system: anti-dsDNA antibodies; test: SLE (lupus) model: anti-dsDNA antibodies in serum by ELISA; type: in vivo, MRL/MpJ-Faslpr mice
Method: Female MRL/MpJ-Faslpr mice (The Jackson Laboratory) were used to assess the efficacy of Compound A in treating lupus. Starting when animals were 10 weeks of age, protein concentration in urine was measured using urine dipsticks.
At the start of the study, each group in the study had two animals that were 9 weeks old, and all others were 10 weeks old. Dosing of all animals with the test compounds began when the older animals were 11 weeks old. […] […] Dosing was at a consistent time each dosing day throughout the study.
Compound A may be formulated as illustrated in Experimental Method A (see Table 2E.). […] A stock solution of Compound A in DMSO (stock solution concentration of Compound A of 40 mg/mL) was prepared and aliquots for weekly preparations were frozen at −20° C. On each preparation day, a stock solution aliquot was thawed and diluted with other vehicle components to the desired concentration. Formulated Compound A and vehicle were at room temperature for dosing.
The study began when the older animals were 11 weeks old, and concluded when the older animals were 19 weeks old. Body weight was recorded once a week, with the exception of two weight measurements taken the first week of the study (when the older animals were 11 weeks old). Proteinuria was measured in the urine of animals with urine dipsticks once a week, starting when the older animals were 10 weeks old. […] Blood samples were taken retro-orbitally at the start of the study to establish a baseline (15 animals, 3 per group), and when the older animals were 16 weeks (all animals) and when animals were 19 weeks (all animals) at the conclusion of the study. Blood urea nitrogen (BUN) was measured in all animals at study termination in blood samples. After blood collection, animals were euthanized, perfused with PBS, and the left kidneys were collected and weighed and fixed in 10% buffered formalin. Left kidneys were then processed to a formalin-fixed, paraffin-embedded (FFPE) block, and histology was analyzed in Periodic Acid-Schiff-stained sections (1 section per slide), using the criteria described in Alperovich et al., Lupus, 16:18-24 (2007). Right kidneys were weighed and snap-frozen at −80° C. Spleens were also collected and weighed. SLE in animals treated with a BET inhibitor and vehicle.
Anti-dsDNA antibody test measures the amount of antibody to double-stranded deoxyribonucleic acid (anti-dsDNA) that may be present in the blood. Anti-dsDNA antibodies are highly specific markers of SLE as these antibodies are not thought to be present in other kinds of autoimmune disorder.

[4] = UUO study: body weight; type: in vivo; conditions: UUO rats; for Body Weight: 10 mg/kg QD, 10 mg/kg; for Mean + SD of Body Weight: group 3, group mean

Cn1cc(-c2ccccc2)c(-c2cn(C)c(=O)c3[nH]c(-c4cnn(C(F)(F)F)c4)cc23)cc1=O [Compound A, 6-methyl-4-(1-methyl-2-oxo-5-phenyl-1,2-dihydropyridin-4-yl)-2-(1-(trifluoromethyl)-1H-pyrazol-4-yl)-1,6-dihydro-7H-pyrrolo[2,3-c]pyridin-7-one]
IC50 ([1]; Preliminary biomarker assay, Test Subject 2, read-out: IL-22 IC50): 0.1 nM | IC50 ([1]; Preliminary biomarker assay, Test Subject 3, read-out: IL-22 IC50): 0.3 nM | IC50 ([1]; ELISA, read-out: Selectivity (IC50) IL-22): 0.214 nM | IC50, inhibition of release of IL-22 ([1]; human PBMCs, 72 hours): sub-nanomolar | EC50 ([2]; previously determined, reference level for rat plasma concentrations (FIG. 4D), read-out: free EC50 BD1 (converted)): 182000 nM | EC50 ([2]; reference level for dog plasma concentrations (Dog PK study #4), read-out: free EC50 BD1 BRD4): 139000 nM | Anti-dsDNA Antibodies in serum, mean ([3]; Compound A 1 mg/kg PO QD, Week 16): 240 units/mL | Anti-dsDNA Antibodies in serum, mean ([3]; Compound A 1 mg/kg PO QD, Week 19): 149 units/mL | Anti-dsDNA Antibodies in serum, mean ([3]; Compound A 3 mg/kg PO QD, Week 16): 112 units/mL | Anti-dsDNA Antibodies in serum, mean ([3]; Compound A 3 mg/kg PO QD, Week 19): 94 units/mL | Anti-dsDNA Antibodies in serum, mean ([3]; Compound A 10 mg/kg PO QD, Week 16): 47 units/mL | Anti-dsDNA Antibodies in serum, mean ([3]; Compound A 10 mg/kg PO QD, Week 19): 57 units/mL | Anti-dsDNA antibodies in serum ([3]; Week 16, 1 mg/mL): did not appear to be effective | Anti-dsDNA antibodies in serum ([3]; Week 16 and Week 19, 3 mg/mL): positive effect in reducing levels | Anti-dsDNA antibodies in serum versus Vehicle group ([3]; Week 16 and Week 19, Compound A (10 mg/mL) and Cyclophosphamide): effective in reducing levels to well below that seen with the Vehicle administered group | Anti-dsDNA antibodies in serum ([3]; Week 19, 1 mg/mL): effective in reducing the levels | Body Weight ([4]; individual animals 1-8, Day 0): 304 g (2×) and 308 g and 291 g and 306 g and 307 g | Body Weight ([4]; individual animals 1-8, Day 1): 290 g and 296 g and 304 g and 281 g and 279 g and 298 g | Body Weight ([4]; individual animals 1-8, Day 2): 283 g and 294 g and 297 g and 281 g and 275 g and 290 g | Body Weight ([4]; individual animals 1-8, Day 3): 286 g and 292 g and 298 g and 280 g and 276 g and 288 g | Body Weight ([4]; individual animals 1-8, Day 4): 285 g and 288 g and 301 g and 277 g and 275 g and 294 g | Body Weight ([4]; individual animals 1-8, Day 5): 283 g and 290 g and 300 g and 278 g and 268 g and 285 g | Body Weight ([4]; individual animals 1-8, Day 6): 283 g and 290 g (2×) and 297 g and 281 g and 266 g and 275 g | Body Weight ([4]; individual animals 1-8, Day 7): 290 g and 285 g and 303 g and 280 g and 260 g and 299 g and 274 g | Body Weight ([4]; individual animals 1-8, Day 8): 295 g and 284 g and 304 g and 279 g and 262 g and 303 g and 275 g | Body Weight ([4]; individual animals 1-8, Day 9): 305 g and 284 g (2×) and 310 g and 279 g and 304 g and 275 g | Body Weight ([4]; individual animals 1-8, Day 10): 300 g and 284 g and 311 g and 277 g and 270 g and 304 g | Body Weight ([4]; individual animals 1-8, Day 11): 298 g and 297 g and 311 g and 278 g and 271 g and 315 g | Body Weight ([4]; individual animals 1-8, Day 12): 295 g and 291 g and 319 g and 283 g and 271 g and 315 g | Body Weight ([4]; individual animals 1-8, Day 13): 294 g and 293 g and 318 g and 286 g and 270 g and 320 g | Body Weight ([4]; individual animals 1-8, Day 14): 298 g and 296 g and 322 g and 291 g and 281 g and 331 g | Body Weight ([4]; individual animals 1-8, Day −1): 284 g and 304 g and 299 g and 289 g and 297 g and 301 g | Mean + SD of Body Weight ([4]; Day 0): 302 ± 6 g | Mean + SD of Body Weight ([4]; Day 1): 288 ± 11 g | Mean + SD of Body Weight ([4]; Day 2): 285 ± 8 g | Mean + SD of Body Weight ([4]; Day 3): 284 ± 9 g | Mean + SD of Body Weight ([4]; Day 4): 283 ± 11 g | Mean + SD of Body Weight ([4]; Day 5): 281 ± 11 g | Mean + SD of Body Weight ([4]; Day 6): 282 ± 10 g | Mean + SD of Body Weight ([4]; Day 7): 284 ± 14 g | Mean + SD of Body Weight ([4]; Day 8): 285 ± 15 g | Mean + SD of Body Weight ([4]; Day 9): 291 ± 13 g | Mean + SD of Body Weight ([4]; Day 10): 289 ± 14 g | Mean + SD of Body Weight ([4]; Day 11): 292 ± 17 g | Mean + SD of Body Weight ([4]; Day 12): 294 ± 17 g | Mean + SD of Body Weight ([4]; Day 13): 296 ± 17 g | Mean + SD of Body Weight ([4]; Day 14): 300 ± 18 g | Mean + SD of Body Weight ([4]; Day −1): 294 ± 7 g | Body weight course ([4]; 10 mg/kg daily, 14-day study): slight weight loss over the course of the 14-day study before regaining their original weight
